Experimental data taken from US7888355B2, “Compositions and methods for inhibiting growth and metastasis of melanoma” (Burnham Institute for Medical Research, priority 2007, dated 2011).

Experiments:
WM793 cells = assay: WM793 melanoma cell viability; format: cell-based, human; conditions: active/inactive wording, concentration given in cell
Description: (§1) Mitochondrial activity and apoptosis. Cells were exposed to the chemicals for 12-48 hours as indicated in Results. To measure changes in mitochondrial activity reflective of general cell viability, the ATPLITE ATP detection assay was used according to the manufacturer's recommendations (Perkin Elmer). Apoptosis analysis was performed by flow cytometry of PI-stained cells. The percentage of cells to the left of the diploid G0/1 peak, characteristic of hypodiploid cells that have partially lost DNA, was calculated as percentage of apoptotic cells (Bhoumik et al., PNAS 101:4222-7, 2004). Analysis of changes in Caspase 8 expression pattern was performed using immunoblot analysis.

SW1 cells = assay: cells; format: cell-based, mouse; conditions: for Activity or EC50 (μM) in SW1 cells: active/inactive wording, concentration given in cell
Description: (§2) Cell lines. Mouse melanoma (SW1) and human melanoma (LU1205) cells were maintained in DMEM supplemented with 10% FBS, L-glutamine and antibiotics. The human melanoma cell lines MEWO and WM115 were maintained in RPMI supplemented with 10% FBS and antibiotics. Primary mouse melanocytes were cultured in F-12 media supplemented with 10% FBS, antibiotics, IBMX (isobuthyl-methylxantine), bovine pituitary extract, and TPA.
as §1, with “analysis. […]” for “analysis.”
Characterization of CSL and AIGA effects on mouse melanoma cells. The structures of AIGA and CSL are depicted in FIGS. 1a and 1b. AIGA was tested for cytotoxicity at concentrations ranging between 0.1 and 2 μM, whereas CSL was used at a concentration of 0.01 to 0.3 μM. SW1 cells or normal melanocytes were seeded on 96 well plates and 24 h late, cells were treated with the indicated concentrations of ATF2 50-100 peptide, AIGA, or CSL for 20 h. ATF2 50-100 peptide (cloned in mammalian expression vector in frame with penetratin was transfected with the aid of lipofectamine) was used as a positive control. ATP levels were used as an indicator of cell viability and were measured using the ATPLITE ATP detection assay kit. The number of surviving cells upon AIGA treatment was normalized to the number of surviving cells under the control treatment, and the normalized number was designated as the “% Viability.” Results shown in FIGS. 1c-1f represent 3 experiments. Treatment of SW1 melanoma cells with 1 μM of AIGA reduced the viability of melanoma cells to 10%, (FIG. 1c). Treatment of the SW1 cells with 0.05 μM of CSL reduced the viability of melanoma cells to 50%, and 0.1 μM reduced it to 10% (FIG. 1d). […] Normal melanocytes and fibroblasts were used as a control.
Thus, the two compounds were evaluated to determine if they require JNK activity for their effects on melanoma cells. To this end, the ability of AIGA or CSL to affect the viability of melanoma cells in the presence of a JNK inhibitor was tested. SW1 cells, with or without a 30-minute pretreatment with the JNK inhibitor SP600125 (10 μM), were contacted with AIGA or CSL at the indicated concentrations for 20 h. ATP levels were used to measure the cell viability using the ATPLITE kit. The number of surviving cells upon AIGA or CSL treatment was normalized to the number of surviving cells under the control treatment, and the normalized number was designated as the “% Viability.” Shown are representative results from 2 experiments. […] Of note, inhibition of JNK activity was more pronounced at lower concentrations of CSL compared with AIGA. […] To assess whether these compounds affect JNK activity, changes in JNK phosphorylation on residues 183/185, which are required for its kinase activity, were monitored. Western blot analysis for JNK phosphorylation on residues 183/185 was performed on protein extracts that were prepared from cells treated with AIGA at concentrations of 0.5 μM, 1.0 μM, and 2.0 μM and a control with no AIGA treatment. Duplicate samples were treated with JNK inhibitor (SP600125). Total level of JNK was analyzed in parallel. […]

WM115 cells = assay: WM115 melanoma cell viability; format: cell-based, human; conditions: active/inactive wording, concentration given in cell
Description: as §2, §1
The effects of CSL and AIGA on the human melanoma cell lines WM115 and MEWO were assessed. AIGA reduced the viability of the human melanoma cultures when added at a concentration of 0.5-2 μM (FIG. 5a and FIG. 5c) whereas CSL reduced their viability at a concentration of 0.1 μM-2 μM in WM115 cells (FIG. 5b) and 0.05 μM-2 μM in MeWO cells (FIG. 5d).

SW1 mouse melanoma = assay: SW1 metastatic lesions in syngeneic C3H mice; format: in vivo; conditions: SW1 cells s.c. in C3H mice
Description: (§3) Tumor growth and metastasis in vivo. GFP-expressing SW1 cells were trypsinized, resuspended in PBS, and injected subcutaneously (1×10^6) into the lower flank of 6 to 7-week-old mice. When tumors reached a size of about 50 mm^3, the indicated compounds (100 μL of the vehicle—10% DMSO, 70% Cremophor/ethanol (3:1), and 20% PBS and 1.0 mg/kg of celastrol or 0.5 mg/kg of the derivatives CA16, CA19) were injected i.p. every alternate day. Body weight and tumor growth were monitored every 2 days. GFP-expressing SW1 tumors were monitored in vivo on shaved mice with a light box illuminated by blue light fiber optics (Lightools Research; Encinitas, Calif.), and imaging was carried out with a digital camera (Nikon D100). Tumors were measured for up to 3 weeks. For metastases studies, LU1205 cells (1×10^6) were injected i.v. into the lateral tail vein of nude mice. At the end of the experiment, the lungs and tumors were excised and weighed. To detect metastatic lesions, lungs were fixed in formalin, embedded in paraffin and subjected to hematoxylin and eosin staining.
To further assess the impact of these compounds on the development of metastatic lesions, the SW1 mouse melanoma model using the syngeneic C3H strain was employed. Subcutaneous injection of SW1 cells results in tumor formation at the site of injection followed by metastasis to different sites within 6-8 weeks.

[1] = tested on: Human melanoma LU1205 cells; assay: LU1205 lung metastasis in nude mice; format: in vivo, mouse; conditions: compound every second day, analysis 60 days after injection
Description: as §3
The effect of CSL and CSL derivatives, CA16 and CA19, on the metastatic capacity of melanoma cells was then determined. Human melanoma LU1205 cells were injected into the tail vein of nude mice, followed by administration of the compounds every second day. This approach allows monitoring of changes in the number of lesions formed on the lungs, a primary organ for tumor cell growth under this experimental approach. Analysis performed 60 days following injection determined changes in the number and size of metastatic lesions in each of the experimental groups.

SW1 tumors = assay: SW1 tumor growth in syngeneic C3H mice; format: in vivo, mouse; conditions: 0.5 mg/kg i.p. every second day for 24 days
Description: as §3
(§4) To assess the ability of CSL and CSL derivatives to affect the tumorigenicity and metastasis of melanoma, the mouse SW1 cell lines were used in syngeneic models. Injection of SW1 melanoma cells subcutaneously into C3H mice was followed by daily injections of CSL intraperitoneally (IP). […] Briefly, SW1 cells that stably express GFP were injected s.c into C3H mice. When the tumor reached the size of 50 mm^3, the vehicle, CSL (1 mg/kg), CA16 (0.5 mg/kg) or CA19 (0.5 mg/kg) were administered i.p, every second day for a period of 24 days. Tumor size was measured at the indicated times. Data presented in FIG. 6b represents two experiments.

[2] = Tolerability of administration to mice; format: in vivo, mouse; conditions: daily administration, doses up to 1 mg/kg
Description: as §4

| Structure (SMILES) | Activity or EC50 (μM) in WM793 cells (WM793 cells) | Activity or EC50 (μM) in SW1 cells (SW1 cells) | Activity or EC50 (μM) in WM115 cells (WM115 cells) | other results |
| --- | --- | --- | --- | --- |
| CC1=C(O)C(=O)C=C2C1=CC=C1C2(C)CCC2(C)C3CC(C)(C(=O)N4CCOCC4)CCC3(C)CCC12C (centres unmarked) [CA08] | inactive | inactive | inactive |  |
| Cc1c(O)c(O)cc2c1CC=C1[C@@]2(C)CC[C@@]2(C)[C@@H]3C[C@](C)(C(=O)O)CC[C@]3(C)CC[C@]12C [Dihydrocelastrol, dihydrocelastrol, reference compound] |  | inactive |  |  |
| COC(=O)[C@]1(C)CC[C@]2(C)CC[C@]3(C)C4=CC=C5C(=CC(=O)C(O)=C5C)[C@]4(C)CC[C@@]3(C)[C@@H]2C1 [Pristimerin, pristimerin, reference compound] |  |  |  | EC50 (SW1 cells; Mus musculus, numeric EC50 cells of the column, read-out: Activity or EC50 (μM) in SW1 cells): < 0.1 µM |
| CC1=C(O)C(=O)C=C2C1=CC=C1C2(C)CCC2(C)C3CC(C)(C(=O)N4CCCC4)CCC3(C)CCC12C (centres unmarked) [CA06] |  | active |  |  |
| CC1=C(O)C(=O)C=C2C1=CC=C1C2(C)CCC2(C)C3CC(C)(C(=O)NC(C)C)CCC3(C)CCC12C (centres unmarked) [CA04] | inactive | active |  |  |
| CC1=C(O)C(=O)C=C2C1=CC=C1C2(C)CCC2(C)C3CC(C)(C(=O)NCc4cccnc4)CCC3(C)CCC12C (centres unmarked) [CA03] | inactive | active | Inactive |  |
| COC(=O)COC(=O)C1(C)CCC2(C)CCC3(C)C4=CC=C5C(=CC(=O)C(O)=C5C)C4(C)CCC3(C)C2C1 (centres unmarked) [CA15] |  | Inactive |  |  |
| CC1=C(O)C(=O)C=C2C1=CC=C1C2(C)CCC2(C)C3CC(C)(C(=O)NCc4ccccc4)CCC3(C)CCC12C (centres unmarked) [CA02] | inactive | inactive | inactive |  |
| CNC(=O)C1(C)CCC2(C)CCC3(C)C4=CC=C5C(=CC(=O)C(O)=C5C)C4(C)CCC3(C)C2C1 (centres unmarked) [CA13] | inactive |  | inactive |  |
| CC1=C(O)C(=O)C=C2C1=CC=C1C2(C)CCC2(C)C3CC(C)(C(=O)OCc4ccccc4)CCC3(C)CCC12C (centres unmarked) [CA16] |  |  |  | development of small sized lesions (SW1 mouse melanoma): opposite effect; metastatic lesions (SW1 mouse melanoma): somewhat active; 1-2 mm and mediastinal lesions [1]: some activity was observed; development of large lung lesions [1]: no impact; decrease in tumor size (SW1 tumors): about 50%; toxicity or discomfort in mice [2]: did not result in toxicity or any noticeable discomfort |
| CC1=C(O)C(=O)C=C2C1=CC=C1C2(C)CCC2(C)C3CC(C)(C(=O)N(C)C)CCC3(C)CCC12C (centres unmarked) [CA05] | inactive | active |  |  |
| COCCNC(=O)C1(C)CCC2(C)CCC3(C)C4=CC=C5C(=CC(=O)C(O)=C5C)C4(C)CCC3(C)C2C1 (centres unmarked) [CA07] |  | active | inactive |  |
| COc1ccc(CNC(=O)C2(C)CCC3(C)CCC4(C)C5=CC=C6C(=CC(=O)C(O)=C6C)C5(C)CCC4(C)C3C2)cc1 (centres unmarked) [CA01] |  | active |  |  |
| CCOC(=O)C1(C)CCC2(C)CCC3(C)C4=CC=C5C(=CC(=O)C(O)=C5C)C4(C)CCC3(C)C2C1 (centres unmarked) [CA18] |  |  |  | ability to induce melanoma cell death, in words (SW1 cells; SW1 cells, compared with celastrol or other derivatives): not that efficient in the SW1 melanoma cells compared to CA19 |
| CC1=C(O)C(=O)C=C2C1=CC=C1C2(C)CCC2(C)C3CC(C)(C(=O)N4CCN(C)CC4)CCC3(C)CCC12C (centres unmarked) [CA14] | inactive |  | inactive |  |
| CC1=C(O)C(=O)C=C2C1=CC=C1C2(C)CCC2(C)C3CC(C)(C(=O)OC(C)C)CCC3(C)CCC12C (centres unmarked) [CA19] |  |  |  | metastatic lesions (SW1 mouse melanoma): potently exhibit the ability to inhibit large as well as small metastatic lesions, with the exception of the 1-2 mm range; growth of large, medium and small sized lesions in the lungs [1]: efficient in inhibiting growth of large medium and small sized lesions in the lungs; reduction of tumor growth (SW1 tumors): 5 fold; toxicity or discomfort in mice [2]: did not result in toxicity or any noticeable discomfort |
